Data taken from US7718768B2, “Biologically active peptide [sequence]” (CMS Peptides Patent Holding Company Limited, priority 2001, dated 2010).
Marks after values point to notes of the source that are not given here. No end group written: not given here.

Experiments:
[1] = tested on: B16 melanoma cells; assay: lung metastasis foci of inoculated B16 melanoma cells, postmortem examination; type: in vivo, C57BL/6 mice
Procedure: Intraperitoneal injection, once per day. […] Treatment of all groups with testing substance lasted for 30 days or until the animal died unless otherwise specified. […] The cell concentration was adjusted to 1×10^5 per ml with Hank's solution and 0.1 ml of the cell suspension was injected via the tail vein into the testing mice to generate the B16 melanoma bearing animal model. Treatment with test substance started as described in section Method 1. […] Postmortum Examination of the Animals was Performed. The Pathological Changes were Recorded, and the Numbers of Melanoma Lung Metastasis Foci were Counted. Results 1. The Effect of Peptide on the Cellular Phagocytosis in BALB/c Mice with Transplanted S180 Sarcoma (Method 2.1)

[2] = tested on: NK cell; assay: NK cell activity in mice with ascitic fluid type liver cancer H22; type: in vivo, BALB/c mice
Procedure: Healthy BALB/c mice were randomized into peptide group, rmIFN-γ group, rhIL-2 group, and saline group, 15 mice per group, and prepared into H22 carrying mice model as described in section Method 3. After implantation of the cancer cells, the test substances were administered for 15 days, the mice were killed by cervical dislocation. The spleen was isolated aseptically and manually dispersed in cold D-Hank's solution using an injection needle. The dispersed cell suspension was further sieved through a 100-gauge 150 μm diameter stainless steel sieve. After centrifugation at 200 g for 10 minutes, the supernatant was discarded. The cell pellet was re-suspended in 10 volume of Tris-NH4Cl buffer and then kept standing still for 10 minutes at room temperature. The suspended cells were collected by centrifugation at 150 g for 10 minutes. The cells were washed 2-4 times with cold D-Hank's solution by re-suspending and collecting by centrifugation with condition as described above. The washed cells were then diluted to the desired cell densities by RPMI-1640 culture medium, containing 10% fetal bovine serum.
Mice spleen cells were prepared to 4×10^6/ml as described in section 4.1 above. Target cells YAC-1 were brought to log phase and adjusted to 1×10^5/ml. Using a 96 wells cell culture plate, 100 μl mouse spleen cells and 100 μl culture medium were added to the control well containing only the spleen cells; 100 μl target cells and 100 μl culture medium were added to the control well containing only target cells; 100 μl mouse spleen cells and 100 μl target cells were added to the NK activity assay well. Three parallel sets of the above were prepared per mouse. After that, the 96 wells cell culture plates were incubated for 4 hrs at 37° C., 5% CO2.
Samples were centrifuged at 150 g for 10 minutes to collect the cells. The supernatant was discarded and 50 μl/well MTT of 1 mg/ml was added. The reaction-mixture was then shaken for 2 minutes, and incubated at 37° C., 5% CO2 for 4 hours. The supernatant was discarded after centrifugation at 150 g for 10 minutes. 120 μl 40 mM HCl-2-propanol was added and shaken for 3 minutes. An ELISA reader was used to obtain OD570nm of each well referenced at 630 nm.
The NK cell activity index of each mouse was obtained by first deriving the average OD of the three parallel wells of each combination, then applying this average OD to the following formula: NK cell activity index=[1−(average OD of spleen and target cell well−average OD of spleen cell only well)÷(average OD of target cell only well)]×100% 5. The Effect of Peptides on the Survival of DBA/2 Mice with Transplanted L1210 Leukemia

[3] = tested on: L1210 leukemia; assay: survival of mice with transplanted L1210 leukemia; type: in vivo, DBA/2 mice; settings: for Survival index: versus saline group
Procedure: Intraperitoneal injection, once per day. […] Treatment of all groups with testing substance lasted for 30 days or until the animal died unless otherwise specified.
Stock L1210 cells were incubated in DMEM/F12 medium supplemented with 10% fetal bovine serum, 37° C./5% CO2 for 72 hrs, then washed 3-4 times with Hank's solution, and adjusted to 1×10^5 cells per liter. 0.1 ml of the cell suspension was implanted into the abdominal cavity of several healthy DBA mice for 6-8 days. The mice were then killed by cervical vertebra dislocation and their ascitic fluid collected aseptically. The cell concentration of the collected ascitic fluid was adjusted to 1×10^5 per ml with Hank's solution. 0.1 ml of the cell suspension was implanted into each of the testing animal and the survival data of the animals recorded. Treatment started in the testing animals as described in section Method 1. Mean survival day was obtained by the Kaplan-meier method in the Survival option of the SPSS software. If the animal survived longer than the experiment, the survival days was entered as the duration of the experiment. The survival index was calculated according to the following formula: Survival index=(mean survival days of treatment group−mean survival days of control group)÷mean survival days of control group 6. The Effect of Peptides on the Humoral Immunity of C57BL/6 Mice Bearing Transplanted B16 Melanoma, and that on the Metastatic Potential of the Inoculated Melanoma Cells

[4] = body weight of rats fed high nutrition diet (obesity induced by over-feeding); type: in vivo, Sprague-Dawley (SD) rats
Procedure: Sprague-Dawley (SD) rats, weighing 145±10 g, were supplied by the Center of Experimental Animal of Guangzhou University of Traditional Chinese Medicine, PR China (certificate No.: 2000A019). Peptides were custom synthesized (of L-amino acids origin) by American Peptide Company, Inc., USA, and were diluted to 10 μg/ml in normal saline. The high and normal nutrition diets were prepared in compliance with the guideline for pre-clinical research of anti-obesity drug, issued by SDA (State Drug Administration), PR China^[1].
Healthy rats were randomized into the experiment, positive control, and negative control groups. 10 rats per group, half male and half female. The experiment group of rats was fed with high nutrition diet for 5 weeks with simultaneous intramuscular injection of 300 μg/kg/day peptide, once per day. Positive control group received the same high nutrition diet but placebo saline injection, while negative control group, used to proof successful establishment of obesity model, received normal nutrition diet and placebo saline injection. After 5 weeks treatment, injection was stopped and the same diet was maintained for another 3 weeks. The rats were weighed at once per week interval. Behaviour of the rats was also observed.
The data were presented as mean±standard deviation. Paired t test or single-factor ANOVA was used for inter and intra group comparison. Statistical significance cut-off was at P≦0.05.

[5] = 3 × 10^5 IU/kg i.p. once per day

With IGMESAGIHETTY [CMS016] the “B16 metastatic foci in the lung, postmortem examination” value (“B16 metastatic foci in the lung” below) ([1]; 5 μg/kg/day i.p.) was “did not show any sign of existence of B16 metastatic foci in the lung” and the “B16 metastatic foci in the lung” value ([1]; 500 μg/kg/day i.p.) was “did not show any sign of existence of B16 metastatic foci in the lung”.

For “Tyr Ser Leu (YSL; listed as Sus scrofa) [CMS024]”, the NK activity index ([2]; 0.5 μg/kg i.p. once per day) was 39.3 ± 18.7*^$ %, the NK activity index ([2]; 5 μg/kg i.p. once per day) was 34.9 ± 12.1*^^$ % and the NK activity index ([2]; 50 μg/kg i.p. once per day) was 43.6 ± 13.9*^^$& %.

For VGMGQKDSY [CMS019], the Survival days ([3]; 0.5 μg/kg i.p. once per day) was 21.1 ± 5.8 days and the Survival index ([3]; 0.5 μg/kg i.p. once per day) was 26.8%.

For “Phe Glu Glu Glu (FEEE; listed as Sus scrofa) [CMS032]”, the NK activity index ([2]; 5 μg/kg i.p. once per day) was 52.6 ± 12.5*^^$& % and the NK activity index ([2]; 50 μg/kg i.p. once per day) was 41.0 ± 18.7*^^$& %.

For “Pro Glu Asn Phe (PENF; listed as Sus scrofa) [CMS034]”, the NK activity index ([2]; 50 μg/kg i.p. once per day) was 57.3 ± 17.9*^^$& %.

In the case of FNFVPP [CMS003], the NK activity index ([2]; 500 μg/kg i.p. once per day) is reported as 37.9 ± 14.5*^^$ %.

In the case of “Phe Val Asn Asp (FVND; listed as Sus scrofa) [CMS035]”, the Survival days ([3]; 0.5 μg/kg i.p. once per day) is reported as 29.3 ± 15.4 days and the Survival index ([3]; 0.5 μg/kg i.p. once per day) is reported as 76.1%.

Work on PSIVGRPRHQGVM [CMS015] yielded a body weight ([4]; Pre-treatment, Female n = 5, 300 μg/kg/day intramuscular) of 129.2 ± 3.3 g, a body weight ([4]; Pre-treatment, Male n = 5, 300 μg/kg/day intramuscular) of 145.6 ± 8.5 g and a body weight ([4]; Week 1, Female, 300 μg/kg/day intramuscular) of 157.8 ± 8.3 g. For the same molecule, the body weight ([4]; Week 1, Male, 300 μg/kg/day intramuscular) was 183.8 ± 10.6 g, the body weight ([4]; Week 2, Female, 300 μg/kg/day intramuscular) was 176.0 ± 11.2 g and the body weight ([4]; Week 2, Male, 300 μg/kg/day intramuscular) was 220.6 ± 12.2 g. For the same molecule, the body weight ([4]; Week 3, Female, 300 μg/kg/day intramuscular) was 196.0 ± 10.5 g, the body weight ([4]; Week 3, Male, 300 μg/kg/day intramuscular) was 239.0 ± 16.0 g and the body weight ([4]; Week 4, Female, 300 μg/kg/day intramuscular) was 212.0 ± 13.5 g. The body weight ([4]; Week 4, Male, 300 μg/kg/day intramuscular) was 258.2 ± 18.1 g, the body weight ([4]; Week 5 (last week of injection), Female, 300 μg/kg/day intramuscular) was 221.4 ± 13.2 g and the body weight ([4]; Week 5 (last week of injection), Male, 300 μg/kg/day intramuscular) was 268.8 ± 17.7 g. For the same molecule, the body weight ([4]; Week 6 (injection stopped after week 5), Female) was 235.6 ± 16.3 g, the body weight ([4]; Week 6 (injection stopped after week 5), Male) was 299.4 ± 21.2 g and the body weight ([4]; Week 7 (injection stopped after week 5), Female) was 242.2 ± 18.8 g. For the same molecule, the body weight ([4]; Week 7 (injection stopped after week 5), Male) was 310.4 ± 25.9 g, the body weight ([4]; Week 8 (injection stopped after week 5), Female) was 252.8 ± 22.5 g and the body weight ([4]; Week 8 (injection stopped after week 5), Male) was 337.4 ± 30.6 g.

In the case of KAVGHLDDLPGAL [CMS008], the “B16 metastatic foci in the lung” value ([1]; 0.5 μg/kg/day i.p.) is reported as “did not show any sign of existence of B16 metastatic foci in the lung”, the “B16 metastatic foci in the lung” value ([1]; 5 μg/kg/day i.p.) is reported as “did not show any sign of existence of B16 metastatic foci in the lung” and the “B16 metastatic foci in the lung” value ([1]; 50 μg/kg/day i.p.) is reported as “did not show any sign of existence of B16 metastatic foci in the lung”.

B1: IFN-γ: recombinant mouse interferon-γ, Beijing Biotech Inc.; positive control immunostimulant (protein, UniProt P01580 23-155, looked up)
Interferon gamma: HGTVIESLESLNNYFNSSGIDVEEKSLFLDIWRNWQKDGDMKILQSQIISFYLRLFEVLKDNQAISNNISVIESHLITTFFSNSKAKKDAFMSIAKFEVNNPQVQRQAFNELIRVVHQLLPESSLRKRKRSRC
With B1 the NK activity index [2, 5] was 20.9 ± 3.3% and the Survival days [3, 5] was 15.6 ± 2.2 days.
